In patent publication US20150183802A1, “TRICYCLIC SULFONAMIDE DERIVATIVES” (NOVARTIS AG, priority 2013, published 2015) one finds IC50 data, which are given here for 24 molecules.

For orientation: IC50 means the midpoint of a concentration-inhibition curve. Low values mean greater potency, high ones weaker potency.

In the experiment the target is T1, hNav1.7 channels (Homo sapiens, UniProt Q15858).
T1 construct: host or cells: HEK293
The experiment is described as follows: hNav1.7 channel in vitro patch-clamp assay. It counts as cell-based. The conditions noted are these: stable HEK293 cell line expressing hNav1.7; whole cell patch-clamp (QPatch HTX and/or conventional), room temperature; voltage protocol not given. As to the method: hNav1.7 Channel In Vitro Patch-Clamp Assay
Cells: Sable HEK293 (human embryonic kidney) cell line expressing hNav1.7 channels was used in the assay. The cell line was obtained from Millipore (Millipore Corporation, MA).
Patch-clamp recordings: The recordings were performed on QPatch HTX (Sophion Bioscience, Denmark) and/or conventional patch-clamp (Axon Multiclamp 700B systems, Molecular Devices, CA) platforms at room temperature, using whole cell patch-clamp techniques. The composition of extracellular solution was (in mM): HEPES 5, NaCl 40, KCl 3, CaCl2 1, MgCl2 1, Choline Chloride 100. Adjust pH to 7.2 with 1N NaOH, osmolarity to 300-310 mOsm with sucrose. The composition of intracellular solution was (in mM): HEPES 10, NaCl 10, Na2ATP 1, MgCl2 2, KF 135, EGTA 10. Adjust pH to 7.2 with 1N NaOH, osmolarity to 290-300 mOsm with sucrose.
For conventional patch-clamp, 35 mm culture dishes containing hNav1.7 cells were placed on the stage of an inverted microscope and continuously perfused with extracellular solution from a perfusion system (Biologic Rapid solution changer, RSC-160, ˜1 ml/min). […] The recordings were controlled by pCLAMP10 software. Test compounds were dissolved in 100% DMSO to make stock solutions for each test concentration, and then diluted into extracellular solution to achieve final concentration for testing. Final DMSO concentration was less than 0.3%. Two voltage protocols were used in hNav1.7 assay: for non-inactivated protocol, the sodium currents were elicited by a 2 ms pulse to −10 mV from a holding potential of −110 mV. For inactivated protocol, the holding potential was set at V1/2. The voltage was firstly stepped to −110 mV for 50 ms, then to −10 mV for 2 ms and then stepped back to holding potential. In both protocols the voltage command was given in every 10 s. Compound effect (% inhibition) was determined by difference in current amplitude before and after the application of test compounds. IC50 values were determined from concentration-response curves that were obtained with Hill fitting.
For QPatch HTX assay, hNav1.7 cells grown to 50%-80% confluence were rinsed with DPBS and dissociated with Tryple (Invitrogen, 12605-010). The dissociated cells were then mixed with extracellular solution. After centrifuge, the cells were resuspended in extracellular solution and used in the QPatch experiment. The whole-cell protocols, voltage protocols and application protocols were established with QPatch Assay Software 3.4 (Sophion Bioscience, Denmark). Only the inactivated protocol was used in the QPatch assay.
(Patch clamp records ionic current or voltage across a cell membrane.)

T1 sequence (Q15858 whole entry): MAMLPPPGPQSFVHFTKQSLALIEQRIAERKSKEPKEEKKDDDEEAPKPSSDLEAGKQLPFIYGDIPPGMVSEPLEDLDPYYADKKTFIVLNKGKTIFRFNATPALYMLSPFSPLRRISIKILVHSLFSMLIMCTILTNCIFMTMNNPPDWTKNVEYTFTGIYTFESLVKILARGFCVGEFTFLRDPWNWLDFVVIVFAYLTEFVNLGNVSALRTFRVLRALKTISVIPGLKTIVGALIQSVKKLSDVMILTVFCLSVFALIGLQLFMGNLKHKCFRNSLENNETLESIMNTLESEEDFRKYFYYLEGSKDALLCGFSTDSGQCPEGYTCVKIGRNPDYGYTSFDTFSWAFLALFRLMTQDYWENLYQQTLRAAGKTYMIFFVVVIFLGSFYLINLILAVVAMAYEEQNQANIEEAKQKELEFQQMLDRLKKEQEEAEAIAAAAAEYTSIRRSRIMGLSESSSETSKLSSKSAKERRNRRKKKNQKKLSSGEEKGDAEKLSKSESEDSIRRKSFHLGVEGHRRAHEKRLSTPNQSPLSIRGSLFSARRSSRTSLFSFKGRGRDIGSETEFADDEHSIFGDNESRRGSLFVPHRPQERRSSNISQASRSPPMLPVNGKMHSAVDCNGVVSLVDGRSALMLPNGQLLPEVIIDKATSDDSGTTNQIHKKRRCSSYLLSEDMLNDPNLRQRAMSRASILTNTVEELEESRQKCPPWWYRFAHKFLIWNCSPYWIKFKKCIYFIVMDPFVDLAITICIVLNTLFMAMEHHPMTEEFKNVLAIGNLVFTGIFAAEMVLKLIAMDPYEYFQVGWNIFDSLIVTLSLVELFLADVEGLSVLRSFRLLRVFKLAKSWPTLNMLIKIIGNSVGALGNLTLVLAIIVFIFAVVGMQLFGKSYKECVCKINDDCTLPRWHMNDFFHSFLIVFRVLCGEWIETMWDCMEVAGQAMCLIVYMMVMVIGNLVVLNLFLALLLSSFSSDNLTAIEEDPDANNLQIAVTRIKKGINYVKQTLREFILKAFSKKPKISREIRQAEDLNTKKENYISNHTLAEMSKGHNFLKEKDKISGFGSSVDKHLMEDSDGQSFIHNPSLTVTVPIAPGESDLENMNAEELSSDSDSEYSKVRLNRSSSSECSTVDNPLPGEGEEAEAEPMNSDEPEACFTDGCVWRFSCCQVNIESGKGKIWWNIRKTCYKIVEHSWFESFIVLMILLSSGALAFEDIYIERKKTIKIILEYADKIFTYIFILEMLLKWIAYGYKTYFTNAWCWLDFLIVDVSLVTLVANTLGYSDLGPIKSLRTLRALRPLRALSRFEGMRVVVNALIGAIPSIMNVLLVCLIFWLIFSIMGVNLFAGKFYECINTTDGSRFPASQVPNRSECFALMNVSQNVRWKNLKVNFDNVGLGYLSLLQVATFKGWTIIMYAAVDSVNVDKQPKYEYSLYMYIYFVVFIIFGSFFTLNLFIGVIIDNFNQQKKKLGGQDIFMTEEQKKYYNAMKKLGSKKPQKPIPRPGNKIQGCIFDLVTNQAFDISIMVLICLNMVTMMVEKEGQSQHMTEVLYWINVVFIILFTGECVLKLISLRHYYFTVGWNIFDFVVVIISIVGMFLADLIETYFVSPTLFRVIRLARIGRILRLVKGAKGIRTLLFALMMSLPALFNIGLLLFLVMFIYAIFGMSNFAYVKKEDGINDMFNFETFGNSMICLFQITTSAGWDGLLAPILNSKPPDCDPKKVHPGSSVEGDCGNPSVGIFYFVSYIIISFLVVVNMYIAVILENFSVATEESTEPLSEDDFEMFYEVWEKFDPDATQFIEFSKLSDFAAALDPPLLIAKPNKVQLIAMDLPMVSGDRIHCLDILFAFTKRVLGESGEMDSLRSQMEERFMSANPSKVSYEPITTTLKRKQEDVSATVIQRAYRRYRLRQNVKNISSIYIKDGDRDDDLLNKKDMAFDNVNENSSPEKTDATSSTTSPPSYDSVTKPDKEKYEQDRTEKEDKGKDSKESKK

In turn, `CS(=O)(=O)Nc1noc2cc3c(cc12)C1(CC1)C(=O)N3c1cnc(OCC2CCC(F)(F)CC2)c(Cl)c1` [Example 13, N-(7′-(5-chloro-6-((4,4-difluorocyclohexyl)methoxy)pyridin-3-yl)-6′-oxo-6′,7′-dihydrospiro[cyclopropane-1,5′-isoxazolo[4,5-f]indol]-3′-yl)methanesulfonamide] showed an IC50 of 300 nM.

In the case of `CC(C)COc1ncc(N2C(=O)C3(CC3)c3cc4c(NS(=O)(=O)N5CCCC5)noc4cc32)cc1Cl` [Example 10, N-(7′-(5-chloro-6-isobutoxypyridin-3-yl)-6′-oxo-6′,7′-dihydrospiro[cyclopropane-1,5′-isoxazolo[4,5-f]indol]-3′-yl)pyrrolidine-1-sulfonamide], the IC50 was 500 nM.

In the case of `Cc1cc2cc3c(NS(=O)(=O)C4CC4)noc3cc2c(-c2cnc(OCC(C)C)c(Cl)c2)n1` [Example 61, N-(8-(5-chloro-6-isobutoxypyridin-3-yl)-6-methylisoxazolo[4,5-g]isoquinolin-3-yl)cyclopropanesulfonamide], the IC50 is 510 nM.

The molecule `CC(C)COc1ncc(N2C(=O)C3(CC3)c3cc4c(NS(=O)(=O)c5ccccc5)noc4cc32)cc1Cl` [Example 6, N-(7′-(5-chloro-6-isobutoxypyridin-3-yl)-6′-oxo-6′,7′-dihydrospiro[cyclopropane-1,5′-isoxazolo[4,5-f]indol]-3′-yl)benzenesulfonamide] returned an IC50 of 3000 nM.

Molecule `CC(C)COc1ncc(N2C(=O)C3(CC3)c3cc4c(NS(=O)(=O)C(F)(F)F)noc4cc32)cc1Cl` [Example 5, N-(7′-(5-chloro-6-isobutoxypyridin-3-yl)-6′-oxo-6′,7′-dihydrospiro[cyclopropane-1,5′-isoxazolo[4,5-f]indol]-3′-yl)-1,1,1-trifluoromethanesulfonamide] yielded a concentration for half-maximal inhibition (IC50) of 430 nM.

`C[C@H](Oc1ncc(N2C(=O)C3(CC3)c3cc4c(NS(=O)(=O)C5CC5)noc4cc32)cc1Cl)c1ccc(F)cc1` [Example 18, (S)—N-(7′-(5-chloro-6-(1-(4-fluorophenyl)ethoxy)pyridin-3-yl)-6′-oxo-6′,7′-dihydrospiro[cyclopropane-1,5′-isoxazolo[4,5-f]indol]-3′-yl)cyclopropanesulfonamide] gave a concentration for half-maximal inhibition (IC50) of 100 nM.

In the case of `O=C1N(c2cnc(OCCCC(F)(F)F)c(Cl)c2)c2cc3onc(NS(=O)(=O)C4CC4)c3cc2C12CC2` [Example 17, N-(7′-(5-chloro-6-(4,4,4-trifluorobutoxyl)pyridin-3-yl)-6′-oxo-6′,7′-dihydrospiro[cyclopropane-1,5′-isoxazolo[4,5-f]indol]-3′-yl)cyclopropanesulfonamide], it took 200 nM to reach half-maximal inhibition (IC50). This IC50 lies about 2-fold higher than the previous one.

For the molecule `O=C1N(c2cnc(OC3CCCCC3)c(Cl)c2)c2cc3onc(NS(=O)(=O)C4CC4)c3cc2C12CC2` [Example 26, N-(7′-(5-chloro-6-(cyclohexyloxy)pyridin-3-yl)-6′-oxo-6′,7′-dihydrospiro[cyclopropane-1,5′-isoxazolo[4,5-f]indol]-3′-yl)cyclopropanesulfonamide], the 50% inhibitory concentration (IC50) is 110 nM.

With `O=C1N(c2cnc(OC3CCC3)c(Cl)c2)c2cc3onc(NS(=O)(=O)C4CC4)c3cc2C12CC2` [Example 21, N-(7′-(5-chloro-6-cyclobutoxypyridin-3-yl)-6′-oxo-6′,7′-dihydrospiro[cyclopropane-1,5′-isoxazolo[4,5-f]indol]-3′-yl)cyclopropanesulfonamide], the 50% inhibitory concentration (IC50) is 150 nM.

Turning to `CC(C)COc1ncc(N2C(=O)C3(CC3)Oc3cc4c(NS(=O)(=O)C5CC5)noc4cc32)cc1Cl` [Example 62, N-(8′-(5-chloro-6-isobutoxypyridin-3-yl)-7′-oxo-7′,8′-dihydrospiro[cyclopropane-1,6′-isoxazolo[5′,4′:4,5]benzo[1,2-b][1,4]oxazin]-3′-yl)cyclopropanesulfonamide], half-maximal inhibition (IC50) was put at 100 nM. This IC50 is about 1.5-fold lower than that of the molecule before.

As to `CC(C)COc1ncc(-c2nn(C)c3cc4c(NS(=O)(=O)C5CC5)noc4cc23)cc1Cl` [Example 47, N-(7-(5-chloro-6-isobutoxypyridin-3-yl)-5-methyl-5H-isoxazolo[5,4-f]indazol-3-yl)cyclopropanesulfonamide], the midpoint of inhibition, the IC50, lay at 400 nM.

In turn, `CC(C)COc1ncc(-c2ccnc3cc4c(NS(=O)(=O)C5CC5)noc4cc23)cc1Cl` [Example 55, N-(8-(5-chloro-6-isobutoxypyridin-3-yl)isoxazolo[5,4-g]quinolin-3-yl)cyclopropanesulfonamide] registered an IC50 of 850 nM.

As for `CC(C)COc1ncc(N2C(=O)C3(CC3)c3cc4c(NS(=O)(=O)C5CC5)noc4cc32)cc1F` [Example 22, N-(7′-(5-fluoro-6-isobutoxypyridin-3-yl)-6′-oxo-6′,7′-dihydrospiro[cyclopropane-1,5′-isoxazolo[4,5-f]indol]-3′-yl)cyclopropanesulfonamide], half-maximal inhibition (IC50) required 300 nM.

For `CC1(COc2ncc(N3C(=O)C4(CC4)c4cc5c(NS(C)(=O)=O)noc5cc43)cc2Cl)CC1` [Example 15, N-(7′-(5-chloro-6-((1-methylcyclopropyl)methoxy)pyridin-3-yl)-6′-oxo-6′,7′-dihydrospiro[cyclopropane-1,5′-isoxazolo[4,5-f]indol]-3′-yl) methanesulfonamide], the IC50 was found to be 70 nM.

On to `CC(C)COc1ncc(-c2cncc3cc4c(NS(C)(=O)=O)noc4cc23)cc1Cl` [Example 57, N-(8-(5-chloro-6-isobutoxypyridin-3-yl)isoxazolo[5,4-g]isoquinolin-3-yl)methanesulfonamide], for which it took 2360 nM to reach half-maximal inhibition (IC50).

Turning to `O=C1N(c2cnc(OCC3CCC3)c(Cl)c2)c2cc3onc(NS(=O)(=O)C4CC4)c3cc2C12CC2` [Example 25, N-(7′-(5-chloro-6-(cyclobutylmethoxy)pyridin-3-yl)-6′-oxo-6′,7′-dihydrospiro[cyclopropane-1,5′-isoxazolo[4,5-f]indol]-3′-yl)cyclopropanesulfonamide], the IC50 is 80 nM.

With `CS(=O)(=O)Nc1noc2cc3c(cc12)C1(CC1)C(=O)N3c1cnc(OCC2CCC(C(F)(F)F)CC2)c(Cl)c1` (stereo not drawn) [Example 14, N-(7′-(5-chloro-6-((4-(trifluoromethyl)cyclohexyl)methoxy)pyridin-3-yl)-6′-oxo-6′,7′-dihydrospiro[cyclopropane-1,5′-isoxazolo[4,5-f]indol]-3′-yl)methanesulfonamide], it took 200 nM to reach half-maximal inhibition (IC50).

For the molecule `CC(C)COc1ncc(N2C(=O)C3(CC3)c3cc4c(NS(=O)(=O)c5cccs5)noc4cc32)cc1Cl` [Example 7, N-(7′-(5-chloro-6-isobutoxypyridin-3-yl)-6′-oxo-6′,7′-dihydrospiro[cyclopropane-1,5′-isoxazolo[4,5-f]indol]-3′-yl)thiophene-2-sulfonamide], the half-inhibitory concentration (IC50) is 500 nM.

With `CC(C)COc1ncc(N2C(=O)C3(CC3)c3cc4c(NS(=O)(=O)N(C)C)noc4cc32)cc1Cl` [Example 9, N-(7′-(5-chloro-6-isobutoxypyridin-3-yl)-6′-oxo-6′,7′-dihydrospiro[cyclopropane-1,5′-isoxazolo[4,5-f]indol]-3′-yl)dimethylamino-1-sulfonamide], half-maximal inhibition (IC50) was put at 1230 nM.

Molecule `CCS(=O)(=O)Nc1noc2cc3c(cc12)C1(CC1)C(=O)N3c1cnc(OCC(C)C)c(Cl)c1` [Example 4, N-(7′-(5-chloro-6-isobutoxypyridin-3-yl)-6′-oxo-6′,7′-dihydrospiro[cyclopropane-1,5′-isoxazolo[4,5-f]indol]-3′-yl)ethanesulfonamide] registered an IC50 of 100 nM.

Regarding `Cc1nn(-c2cnc(OCC(C)C)c(Cl)c2)c2cc3onc(NS(C)(=O)=O)c3cc12` [Example 44, N-(7-(5-chloro-6-isobutoxypyridin-3-yl)-5-methyl-7H-isoxazolo[4,54]indazol-3-yl)methanesulfonamide], half-maximal inhibition (IC50) required 100 nM. That is a sub-micromolar value.

Turning to `CC(C)COc1ncc(-c2nccc3cc4c(NS(=O)(=O)N(C)C)noc4cc23)cc1Cl` [Example 53, N-(8-(5-chloro-6-isobutoxypyridin-3-yl)isoxazolo[4,5-g]isoquinolin-3-yl)N—N-dimethylsulfamide], the IC50 came to 1070 nM.

Consider `Cc1nn(-c2cnc(OCC(C)C)c(Cl)c2)c2cc3onc(NS(=O)(=O)C4CC4)c3cc12` [Example 45, N-(7-(5-chloro-6-isobutoxypyridin-3-yl)-5-methyl-7H-isoxazolo[4,5-f]indazol-3-yl)cyclopropanesulfonamide], for which the IC50 amounted to 30 nM.

With `CC(C)COc1ncc(-n2c(=O)n(C)c3cc4c(NS(C)(=O)=O)noc4cc32)cc1Cl` [Example 34, N-(7-(5-chloro-6-isobutoxypyridin-3-yl)-5-methyl-6-oxo-6,7-dihydro-5H-imidazo[4′,5′:4,5]benzo[1,2-d]isoxazol-3-yl)methanesulfonamide], it took 100 nM to reach half-maximal inhibition (IC50).
